Read-outs that look alike come from different tables or passages of the source.
Test system: Brown Planthoppers (Nilaparvata lugens)
Test: Effect against brown planthoppers (foliar spray on rice seedlings)
Type: in vivo
Conditions: Nilaparvata lugens, foliar, 168 h, read-out: % Mortality after 7 days
Description: Effect Against Brown Planthoppers (Nilaparvata lugens)
An emulsifiable concentrate of the compound of the invention, prepared in the same manner as Example 112 below, was diluted with water to a concentration of 500 ppm and sprayed over the stems and leaves of rice seedlings in the 2-leaf stage at the rate of 10 ml per paper pot. Water was put in test tubes and the treated rice seedlings were placed therein. Then, 10 brown planthopper larvae were released in each tube, which was then capped with an aluminum cap. The test tubes were maintained in an incubator at 25° C. and the dead insects were counted 7 days after release. The % mortality was calculated using the following formula. [formula]

[1] = emulsifiable concentrate diluted with water to 500 ppm, sprayed on rice seedlings (2-leaf stage), 10 ml per paper pot, 10 larvae per tube, 25° C., dead insects counted 7 days after release

Row | SMILES | mortality at 500 µg/mL [1] [%] | mortality at 500 µg/mL [%]
1 | CN(C)C(=C[N+](=O)[O-])N(C=O)Cc1cccnc1 [Compound 72, 1-Dimethylamino-1-[N-formyl-N-(3-pyridylmethyl)]-amino-2-nitroethylene] | 100 | –
2 | CNC(=C[N+](=O)[O-])N(C)Cc1cnccn1 [Compound 73, 1-Methylamino-1-[N-methyl-N-(2-pyrazinyl)methyl]amino-2-nitroethylene] | 100 | –
3 | CCCN(Cc1ccc(Cl)nc1)C(N)=C[N+](=O)[O-] [Compound 75, 1-Amino-1-[N-(6-chloro-3-pyridylmethyl)-N-n-propyl]-amino-2-nitroethylene] | – | 100
4 | CCCN(Cc1ccc(Cl)nc1)C(=C[N+](=O)[O-])NC [Compound 76, 1-[N-(6-Chloro-3-pyridylmethyl)-N-n-propyl]amino-1-methylamino-2-nitroethylene] | – | 100
5 | CNC(=C[N+](=O)[O-])N(C)c1ccc(Cl)nc1 [Compound 78, 1-[N-(6-Chloro-3-pyridyl)-N-methyl]amino-1-methyl-amino-2-nitroethylene] | 100 | –
6 | CNC(=C[N+](=O)[O-])N(C)c1cccnc1 [Compound 79, 1-Methylamino-1-[N-methyl-N-(3-pyridyl)]amino-2-nitroethylene] | 100 | –
7 | CCNC(=C[N+](=O)[O-])N(C)Cc1ccc(Cl)nc1 [Compound 80, 1-[N-(6-Chloro-3-pyridylmethyl)-N-methyl]amino-1-ethylamino-2-nitroethylene] | – | 100
8 | CNC(=C[N+](=O)[O-])N(C)c1ccc(C)nc1 [Compound 84, 1-Methylamino-1-[N-methyl-N-(6-methyl-3-pyridyl)]-amino-2-nitroethylene] | 100 | –
9 | CCNC(=C[N+](=O)[O-])N(C)c1ccc(Cl)nc1 [Compound 85, 1-[N-(6-chloro-3-pyridyl)-N-methyl]amino-1-ethyl-amino-2-nitroethylene] | 100 | –
10 | CNC(=C[N+](=O)[O-])N(C)Cc1cncc(Br)c1 [Compound 86, 1-[N-(5-Bromo-3-pyridylmethyl)-N-methyl]amino-1-methylamino-2-nitroethylene] | 100 | –
11 | CNC(=C[N+](=O)[O-])N(C)Cc1cscn1 [Compound 88, 1-Methylamino-1-[N-methyl-N-(4-thiazolyl)methyl]-amino-2-nitroethylene] | 100 | –
12 | O=[N+]([O-])C=C(NCc1ccc(Cl)nc1)NCc1ccc(Cl)nc1 [Compound 89, 1,1-bis(6-Chloro-3-pyridylmethyl)amino-2-nitro-ethylene] | – | 100
13 | CCN(C(=C[N+](=O)[O-])NC)c1ccc(Cl)nc1 [Compound 90, 1-[N-(6-Chloro-3-pyridyl)-N-ethyl]amino-1-methyl-amino-2-nitroethylene] | 100 | –
14 | CCCN(C(=C[N+](=O)[O-])NC)c1ccc(Cl)nc1 [Compound 91, 1-[N-(6-Chloro-3-pyridyl)-N-n-propyl]amino-1-methyl-amino-2-nitroethylene] | 100 | –
15 | CCCCN(C(=C[N+](=O)[O-])NC)c1ccc(Cl)nc1 [Compound 92, 1-[N-n-Butyl-N-(6-chloro-3-pyridyl)]amino-1-methyl-amino-2-nitroethylene] | 100 | –
16 | CCNC(=C[N+](=O)[O-])N(CC)c1ccc(Cl)nc1 [Compound 93, 1-[N-(6-Chloro-3-pyridyl)-N-ethyl]amino-1-ethyl-amino-2-nitroethylene] | 100 | –
17 | CCCNC(=C[N+](=O)[O-])N(C)c1ccc(Cl)nc1 [Compound 95, 1-[N-(6-Chloro-3-pyridyl)-N-methyl]amino-1-n-propyl-amino-2-nitroethylene] | 100 | –
18 | CNC(=C[N+](=O)[O-])Nc1ccc(Cl)nc1 [Compound 96, 1-(6-Chloro-3-pyridyl)amino-1-methylamino-2-nitro-ethylene] | 100 | –
19 | CNC(=C[N+](=O)[O-])N(C)Cc1ccc(C)nc1 [Compound 97, 1-Methylamino-1-[N-methyl-N-(6-methyl-3-pyridyl-methyl)]amino-2-nitroethylene] | – | 100
20 | CNC(=C[N+](=O)[O-])N(C)Cc1ccc(F)nc1 [Compound 98] | – | 100
21 | CCN(Cc1ccc(F)nc1)C(=C[N+](=O)[O-])NC [Compound 99, 1-[N-Ethyl-N-(6-fluoro-3-pyridylmethyl)]amino-1-methylamino-2-nitroethylene] | – | 100
22 | CNC(=C[N+](=O)[O-])N(C)Cc1ccc(Br)nc1 [Compound 100, 1-[N-(6-Bromo-3-pyridylmethyl)-N-methyl]amino-1-methylamino-2-nitroethylene] | – | 100

Row | SMILES | mortality at 500 µg/mL [1] [%] | mortality at 500 µg/mL [%]
23 | CCN(Cc1ccc(Br)nc1)C(=C[N+](=O)[O-])NC [Compound 101, 1-[N-(6-Bromo-3-pyridylmethyl)-N-ethyl]amino-1-methylamino-2-nitroethylene] | – | 100
24 | CNC(=C[N+](=O)[O-])N(C)Cc1cnc(Cl)s1 [Compound 102, 1-[N-(2-Chloro-5-thiazolylmethyl)-N-methyl]amino-1-methylamino-2-nitroethylene] | – | 100
25 | CCN(Cc1cnc(Cl)s1)C(=C[N+](=O)[O-])NC [Compound 103, 1-[N-(2-Chloro-5-thiazolylmethyl)-N-ethyl]amino-1-methylamino-2-nitroethylene] | – | 100
26 | CN(C)C(=C[N+](=O)[O-])NCc1cnc(Cl)s1 [Compound 104, 1-(2-Chloro-5-thiazolylmethyl)amino-1-dimethyl-amino-2-nitroethylene] | – | 100
27 | O=[N+]([O-])C=C(NCc1cnc(Cl)s1)NCc1cnc(Cl)s1 [Compound 105, 1,1-bis(2-chloro-5-thiazolylmethyl)amino-2-nitroethylene] | – | 100
28 | CNC(=C[N+](=O)[O-])NCc1cnc(Cl)s1 [Compound 106, 1-(2-Chloro-5-thiazolylmethyl)amino-1-methylamino-2-nitroethylene] | – | 100
29 | CN(C)C(=C[N+](=O)[O-])Nc1ccc(Cl)nc1 [Compound 107, 1-(6-Chloro-3-pyridyl)amino-1-dimethylamino-2-nitrothylene] | 100 | –
30 | CNC(=C[N+](=O)[O-])N(C)c1ccc(OC)nc1 [Compound 108, 1-[N-(6-Methoxy-3-pyridyl)-N-methyl]amino-1-1-methyl-amino-2-nitroethylene] | 100 | –
31 | CCOC(=O)C(=C(NC)N(C)c1ccc(Cl)nc1)[N+](=O)[O-] [Compound 109, 1-[N-(6-Chloro-3-pyridyl)-N-methyl]amino-1-methylamino-2-ethoxycarbonyl-2-nitroethylene] | 100 | –
32 | CN(C=O)C(=C[N+](=O)[O-])N(C)Cc1ccc(Cl)nc1 [Compound 110, 1-[N-(6-Chloro-3-pyridylmethyl)-N-methyl]amino-1-(N-formyl-N-methyl)amino-2-nitroethylene] | – | 100
33 | CCN(Cc1ccc(Cl)nc1)C(=C[N+](=O)[O-])N(C)C=O [Compound 111, 1-[N-(6-Chloro-3-pyridylmethyl)-N-ethyl]amino-1-(N-formyl-N-methyl)amino-2-nitroethylene] | – | 100
34 | CN(C=O)C(=C[N+](=O)[O-])N(C)c1ccc(Cl)nc1 [Compound 112, 1[N-(6-Chloro-3-pyridyl)-N-methyl]amino-1-(N-formyl-N-methyl)amino-2-nitroethylene] | 100 | –
35 | CN(C)C(=C[N+](=O)[O-])N(C=O)Cc1ccc(Cl)nc1 [Compound 113, 1-[N-(6-Chloro-3-pyridylmethyl)-N-formyl]amino-1-dimethylamino-2-nitroethylene] | – | 100
36 | CCOC(=O)C(=C(NC)NCc1ccc(Cl)nc1)[N+](=O)[O-] [Compound 116, 1-(6-Chloro-3-pyridylmethyl)amino-1-methylamino-2-ethoxycarbonyl-2-nitroethylene] | – | 100
37 | CNC(NCc1ccc(Cl)nc1)=C(C(=S)NS(C)(=O)=O)[N+](=O)[O-] [Compound 117] | – | 100
38 | CNC(=C[N+](=O)[O-])NCc1ccc(Br)nc1 [Compound 118, 1-N-(6-Bromo-3-pyridylmethyl)amino-1-methylamino-2-nitroetylene] | – | 100
39 | CN(C=O)C(=C[N+](=O)[O-])N(C)Cc1cnc(Cl)s1 [Compound 121, 1-[N-(2-Chloro-5-thiazolylmethyl)-N-methyl)amino-1-(N-formyl-N-methyl)amino-2-nitroethylene] | – | 100
40 | CCN(Cc1cnc(Cl)s1)C(=C[N+](=O)[O-])N(C)C=O [Compound 122, 1-[N-(2-Chloro-5-thiazolylmethyl)-N-ethyl) amino-1-(N-formyl-N-methyl)amino-2-nitroethylene] | – | 100
41 | CNC(=C[N+](=O)[O-])N(C=O)Cc1cnc(Cl)s1 [Compound 124, 1-[N-(2-chloro-5-thiazolylmethyl)-N-formyl]amino-1-methylamino-2-nitroethylene] | – | 100
42 | CN(C=O)C(=C[N+](=O)[O-])N(C)Cc1ccc(Br)nc1 [Compound 125, 1-[N-(6-Bromo-3-pyridylmethyl)-N-methyl]amino-1-(N-formyl-N-methyl)amino-2-nitroethylene] | – | 100
43 | CCN(Cc1ccc(Br)nc1)C(=C[N+](=O)[O-])N(C)C=O [Compound 126, 1-[N-(6-Bromo-3-pyridylmethyl)-N-ethyl]amino-1-(N-formyl-N-methyl)amino-2-nitroethylene] | – | 100
44 | CN(C)C(=C[N+](=O)[O-])NCc1ccc(Br)nc1 [Compound 127, 1-N-(6-Bromo-3-pyridylmethyl)amino-1-dimethylamino-2-nitroethylene] | – | 100

Source: patent US6407248B1, “α-unsaturated amines, their production and use” (Takeda Chemical Industries, Ltd., priority 1987, dated 2002)
